Like-named read-outs stand apart in the source and are kept apart here.
Experiments:
[1] = test system: K. pneumoniae NVT1001 gyrA/parC and gyrA/parC/ramR mutants and revertants; experiment: Etest MIC of quinolones, gyrA/parC and gyrA/parC/ramR mutants and their revertants (Table 11); format: cell-based; conditions: Klebsiella pneumoniae
Text: The allelic-exchange method was used to restore the wild-type gene in the K. pneumoniae NVT1001 mutants with constructed chromosome-mediated resistance mechanisms, as described by Tsai et al.^19 Briefly, a DNA fragment of the entire wild-type gene sequence along with flanking regions was amplified from K. pneumoniae NVT1001 using PCR with specific primers. The resulting PCR fragment was digested and then cloned into pUT-KB. For homologous recombination, this plasmid was transformed into E. coli S17-1 λpir^23 via electroporation and mobilized into the K. pneumoniae NVT1001 mutant via conjugation. […] After incubation in 20 mL BHI broth for 6 hours at 37° C. in the absence of kanamycin, the fully grown cultures were spread onto LB agar plates supplemented with 10% sucrose. After the double crossover occurred, the sucrose-resistant and kanamycin-susceptible colonies were selected, and the restoration of the wild-type gene was confirmed via DNA sequencing.
(§1) The MICs of antibiotics were determined using the Etest (Biodisk AB, Sweden) according to the manufacturer's instructions. The MICs from the Etest, which fall between standard two-fold dilutions, were rounded up to the next highest two-fold value. The MICs of ceftazidime and cefotaxime against K. pneumoniae NVT1001 harbouring the pACYC177 plasmid with blaOXA-48 were further determined using a broth microdilution test according to the recommendations of the CLSI,^25 and the results were interpreted according to the breakpoints established by the CLSI in 2017.^25 Meanwhile, due to the lack of CLSI breakpoints in 2016 and 2017, the results for cephalothin were interpreted according to the breakpoints established by the CLSI in 2015,^26 and the results for moxifloxacin were interpreted according to the breakpoints established by the EUCAST in 2017.^27

[2] = test system: K. pneumoniae NVT1001 strains with QnrB, QnrS or AAC(6′)-Ib-cr plasmids; experiment: Etest MIC of quinolones, GyrA/ParC mutations, ΔramR and/or QnrB, QnrS or AAC(6′)-Ib-cr (Table 12); format: cell-based; conditions: Klebsiella pneumoniae
Description: DNA fragments of the resistance genes along with their flanking regions were amplified from clinical plasmids via PCR with specific primer pairs. The resulting PCR fragments were digested and then cloned into the plasmid pACYC177 or pACYC184. The resulting plasmids were then transformed into K. pneumoniae strain NVT1001 via electroporation. The recombinant bacteria were plated onto LB agar plates containing kanamycin (50 mg/L) or chloramphenicol (50 mg/L), and the presence of the cloned gene was confirmed via PCR and DNA sequencing.
as §1

[3] = S83F/D87N/S80I::F83S/N87D/I80S revertant, read-out: MIC
[4] = S83F/D87N/S80I::I80S revertant, read-out: MIC
[5] = S83F/D87N/S80I::N87D revertant, read-out: MIC
[6] = S83F/D87N/S80I::N87D/I80S revertant, read-out: MIC
[7] = S83I/D87N/S80I::I80S revertant, read-out: MIC
[8] = S83I/D87N/S80I::I83S/N87D/I80S revertant, read-out: MIC
[9] = S83I/D87N/S80I::N87D revertant, read-out: MIC
[10] = S83I/D87N/S80I::N87D/I80S revertant, read-out: MIC
[11] = S83L/D87N/S80I::I80S revertant, read-out: MIC
[12] = S83L/D87N/S80I::L83S/N87D/I80S revertant, read-out: MIC
[13] = S83L/D87N/S80I::N87D revertant, read-out: MIC
[14] = S83L/D87N/S80I::N87D/I80S revertant, read-out: MIC
[15] = S83Y/D87N/S80I::I80S revertant, read-out: MIC
[16] = S83Y/D87N/S80I::N87D revertant, read-out: MIC
[17] = S83Y/D87N/S80I::N87D/I80S revertant, read-out: MIC
[18] = S83Y/D87N/S80I::Y83S/N87D/I80S revertant, read-out: MIC
[19] = ΔramR/S83I/D87N/S80I:: ramR/I83S revertant
[20] = ΔramR/S83I/D87N/S80I:: ramR/I83S/I80S revertant
[21] = ΔramR/S83I/D87N/S80I:: ramR/I83S/N87D revertant
[22] = ΔramR/S83I/D87N/S80I::I83S/N87D/I80S revertant
[23] = ΔramR/S83I/D87N/S80I::N87D revertant
[24] = ΔramR/S83I/D87N/S80I::N87D/I80S revertant
[25] = ΔramR/S83I/D87N/S80I::ramR/I83S/N87D/I80S
[26] = AAC(6′)-Ib-cr on pACYC177, S83I mutant
[27] = AAC(6′)-Ib-cr on pACYC177, S83I/D87N/S80I mutant
[28] = AAC(6′)-Ib-cr on pACYC177, S83I/S80I mutant
[29] = AAC(6′)-Ib-cr on pACYC177, WT (NVT1001), read-out: MIC
[30] = AAC(6′)-Ib-cr on pACYC177, ΔramR mutant
[31] = AAC(6′)-Ib-cr on pACYC177, ΔramR/S83I mutant
[32] = AAC(6′)-Ib-cr on pACYC177, ΔramR/S83I/D87N/S80I mutant
[33] = AAC(6′)-Ib-cr on pACYC177, ΔramR/S83I/S80I mutant
[34] = QnrB on pACYC177, S83I/D87N/S80I mutant
[35] = QnrB on pACYC177, S83I/S80I mutant
[36] = QnrB on pACYC177, WT (NVT1001), read-out: MIC
[37] = QnrB on pACYC177, ΔramR/S83I mutant
[38] = QnrB on pACYC177, ΔramR/S83I/D87N/S80I mutant
[39] = QnrB on pACYC177, ΔramR/S83I/S80I mutant
[40] = QnrS on pACYC177, S83I/D87N/S80I mutant
[41] = QnrS on pACYC177, S83I/S80I mutant
[42] = QnrS on pACYC177, WT (NVT1001), read-out: MIC
[43] = QnrS on pACYC177, ΔramR/S83I mutant
[44] = QnrS on pACYC177, ΔramR/S83I/D87N/S80I mutant
[45] = QnrS on pACYC177, ΔramR/S83I/S80I mutant
[46] = no supplemental plasmid, S83I mutant
[47] = no supplemental plasmid, S83I/D87N/S80I mutant
[48] = no supplemental plasmid, S83I/S80I mutant
[49] = no supplemental plasmid, WT (NVT1001), read-out: MIC
[50] = no supplemental plasmid, ΔramR mutant
[51] = no supplemental plasmid, ΔramR/S83I mutant
[52] = no supplemental plasmid, ΔramR/S83I/D87N/S80I mutant
[53] = no supplemental plasmid, ΔramR/S83I/S80I mutant

COc1c(N2C[C@@H]3CCCN[C@@H]3C2)c(F)cc2c(=O)c(C(=O)O)cn(C3CC3)c12 [Moxifloxacin, moxifloxacin]
MIC ([1]; S83F/D87N/S80I mutant): 32 mg/L
MIC [1, 3]: 0.125 mg/L
MIC [1, 4]: 1 mg/L
MIC [1, 5]: 0.5 mg/L
MIC [1, 6]: 0.5 mg/L
MIC ([1]; S83I/D87N/S80I mutant): > 32 mg/L
MIC [1, 7]: 1 mg/L
MIC [1, 8]: 0.125 mg/L
MIC [1, 9]: 4 mg/L
MIC [1, 10]: 1 mg/L
MIC ([1]; S83L/D87N/S80I mutant): 32 mg/L
MIC [1, 11]: 1 mg/L
MIC [1, 12]: 0.125 mg/L
MIC [1, 13]: 1 mg/L
MIC [1, 14]: 0.5 mg/L
MIC ([1]; S83Y/D87N/S80I mutant): 32 mg/L
MIC [1, 15]: 0.5 mg/L
MIC [1, 16]: 0.5 mg/L
MIC [1, 17]: 0.5 mg/L
MIC [1, 18]: 0.125 mg/L
MIC ([1]; ΔramR/S83I/D87N/S80I mutant): > 32 mg/L
MIC [1, 19]: 1 mg/L
MIC [1, 20]: 0.5 mg/L
MIC [1, 21]: 0.25 mg/L
MIC [1, 22]: 1 mg/L
MIC [1, 23]: > 32 mg/L
MIC [1, 24]: 8 mg/L
MIC [1, 25]: 0.125 mg/L
MIC [2, 26]: 1 mg/L
MIC [2, 27]: > 32 mg/L
MIC [2, 28]: 8 mg/L
MIC [2, 29]: 0.125 mg/L
MIC [2, 30]: 1 mg/L
MIC [2, 31]: 16 mg/L
MIC [2, 32]: > 32 mg/L
MIC [2, 33]: > 32 mg/L
MIC ([2]; QnrB on pACYC177, S83I mutant): 8 mg/L
MIC [2, 34]: > 32 mg/L
MIC [2, 35]: > 32 mg/L
MIC [2, 36]: 2 mg/L
MIC ([2]; QnrB on pACYC177, ΔramR mutant): > 32 mg/L
MIC [2, 37]: > 32 mg/L
MIC [2, 38]: > 32 mg/L
MIC [2, 39]: > 32 mg/L
MIC ([2]; QnrS on pACYC177, S83I mutant): 8 mg/L
MIC [2, 40]: > 32 mg/L
MIC [2, 41]: > 32 mg/L
MIC [2, 42]: 1 mg/L
MIC ([2]; QnrS on pACYC177, ΔramR mutant): > 32 mg/L
MIC [2, 43]: > 32 mg/L
MIC [2, 44]: > 32 mg/L
MIC [2, 45]: > 32 mg/L
MIC [2, 46]: 1 mg/L
MIC [2, 47]: > 32 mg/L
MIC [2, 48]: 8 mg/L
MIC [2, 49]: 0.125 mg/L
MIC [2, 50]: 1 mg/L
MIC [2, 51]: 8 mg/L
MIC [2, 52]: > 32 mg/L
MIC [2, 53]: > 32 mg/L

CCn1cc(C(=O)O)c(=O)c2ccc(C)nc21 [Nalidixic acid, nalidixic acid]
MIC ([1]; S83F/D87N/S80I mutant): > 256 mg/L
MIC [1, 3]: 4 mg/L
MIC [1, 4]: > 256 mg/L
MIC [1, 5]: > 256 mg/L
MIC [1, 6]: > 256 mg/L
MIC ([1]; S83I/D87N/S80I mutant): > 256 mg/L
MIC [1, 7]: > 256 mg/L
MIC [1, 8]: 4 mg/L
MIC [1, 9]: > 256 mg/L
MIC [1, 10]: > 256 mg/L
MIC ([1]; S83L/D87N/S80I mutant): > 256 mg/L
MIC [1, 11]: > 256 mg/L
MIC [1, 12]: 4 mg/L
MIC [1, 13]: > 256 mg/L
MIC [1, 14]: > 256 mg/L
MIC ([1]; S83Y/D87N/S80I mutant): > 256 mg/L
MIC [1, 15]: > 256 mg/L
MIC [1, 16]: > 256 mg/L
MIC [1, 17]: > 256 mg/L
MIC [1, 18]: 8 mg/L
MIC ([1]; ΔramR/S83I/D87N/S80I mutant): > 256 mg/L
MIC [1, 19]: > 256 mg/L
MIC [1, 20]: > 256 mg/L
MIC [1, 21]: 8 mg/L
MIC [1, 22]: 32 mg/L
MIC [1, 23]: > 256 mg/L
MIC [1, 24]: > 256 mg/L
MIC [1, 25]: 8 mg/L
MIC [2, 26]: > 256 mg/L
MIC [2, 27]: > 256 mg/L
MIC [2, 28]: > 256 mg/L
MIC [2, 29]: 4 mg/L
MIC [2, 30]: 64 mg/L
MIC [2, 31]: > 256 mg/L
MIC [2, 32]: > 256 mg/L
MIC [2, 33]: > 256 mg/L
MIC ([2]; QnrB on pACYC177, S83I mutant): > 256 mg/L
MIC [2, 34]: > 256 mg/L
MIC [2, 35]: > 256 mg/L
MIC [2, 36]: 32 mg/L
MIC ([2]; QnrB on pACYC177, ΔramR mutant): 256 mg/L
MIC [2, 37]: > 256 mg/L
MIC [2, 38]: > 256 mg/L
MIC [2, 39]: > 256 mg/L
MIC ([2]; QnrS on pACYC177, S83I mutant): > 256 mg/L
MIC [2, 40]: > 256 mg/L
MIC [2, 41]: > 256 mg/L
MIC [2, 42]: 16 mg/L
MIC ([2]; QnrS on pACYC177, ΔramR mutant): 64 mg/L
MIC [2, 43]: > 256 mg/L
MIC [2, 44]: > 256 mg/L
MIC [2, 45]: > 256 mg/L
MIC [2, 46]: > 256 mg/L
MIC [2, 47]: > 256 mg/L
MIC [2, 48]: > 256 mg/L
MIC [2, 49]: 4 mg/L
MIC [2, 50]: 32 mg/L
MIC [2, 51]: > 256 mg/L
MIC [2, 52]: > 256 mg/L
MIC [2, 53]: > 256 mg/L
